Results: US20240245793A1, “PSD-95 INHIBITORS AND USES THEREOF” (priority 2021, published 2024)
Where two headings read alike, the source gives them in different places.

Legend:
[1] = In vitro plasma stability in undiluted pooled human plasma; type: in vitro ADME; conditions: for T1/2: 100 μM ligand, 37° C., mean ± SEM (Table 13, FIG. 10)
Protocol: At selected time points during the incubation, the ligands were extracted from the assay matrix by adding assay matrix to 6M Urea followed by precipitation using 20% TCA in acetone. After overnight incubation, the samples were filtered and analysed by UPLC to determine the amount of ligand remaining. LC-MS analysis was performed to confirm ligand integrity and identify cleavage sites.

[2] = target: T1, plasmin (Homo sapiens, UniProt P00747); assay: In vitro plasmin stability assay; type: in vitro ADME
T1 construct: Tissue plasminogen factor (tPA), which generates plasmin from plasminogen
Protocol: At selected time points during the incubation, the ligands were extracted from 80 μL of assay matrix by treatment with 80 μL of 50% acetonitrile (ACN). The samples were filtered and analysed by UPLC to determine the amount of ligand remaining. LC-MS analysis was performed to confirm ligand integrity and identify cleavage sites.

[3] = target: PDZ1-2 of PSD-95 (Homo sapiens, UniProt P78352); assay: Fluorescence polarization (FP) competition assay, affinity to PDZ1-2 of PSD-95; type: binding; conditions: dimeric ligands fused to L-TAT and L-Arg9; mean ± SEM, n ≥ 3 (Table 5, FIG. 2)
Protocol: First, a saturation binding curve was obtained to determine KD values for the interaction between a fluorescent dimeric probe and PDZ1-2 of PSD-95. Increasing concentrations of PDZ1-2 (0.015-30 nM) were added to a constant concentration of the probe (0.5 nM). The fluorescence polarization (FP) of the sample was measured at excitation/emission wavelength of 635/670 nm and the generated FP values were fitted to a one site binding model using the software GraphPad Prism. […] The FP values were fitted to a one site competition (variable slope) model in GraphPad prism. The resulting IC50 values were converted to Ki values as described previously by Nikolovska-Coleska et al., Anal. Biochem., 2004, 332, 261).

[4] = isolated enzyme plasmin, read-out: T1/2

PDZ1-2 of PSD-95, sequence (P78352 61-249 limits assumed): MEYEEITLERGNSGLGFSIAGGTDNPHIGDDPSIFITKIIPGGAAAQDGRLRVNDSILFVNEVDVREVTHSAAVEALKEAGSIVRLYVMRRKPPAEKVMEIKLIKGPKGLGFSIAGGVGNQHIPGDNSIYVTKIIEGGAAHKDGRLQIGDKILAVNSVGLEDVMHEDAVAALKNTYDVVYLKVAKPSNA
T1 sequence (P00747 581-810 limits assumed, species assumed): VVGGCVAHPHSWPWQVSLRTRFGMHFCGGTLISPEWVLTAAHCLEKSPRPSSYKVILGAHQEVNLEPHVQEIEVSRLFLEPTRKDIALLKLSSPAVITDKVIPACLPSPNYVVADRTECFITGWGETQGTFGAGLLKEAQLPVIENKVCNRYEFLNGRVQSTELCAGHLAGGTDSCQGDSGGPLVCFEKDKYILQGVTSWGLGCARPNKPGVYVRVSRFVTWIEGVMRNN
T1 sequence (P00747 97-580 partner limits assumed, species assumed): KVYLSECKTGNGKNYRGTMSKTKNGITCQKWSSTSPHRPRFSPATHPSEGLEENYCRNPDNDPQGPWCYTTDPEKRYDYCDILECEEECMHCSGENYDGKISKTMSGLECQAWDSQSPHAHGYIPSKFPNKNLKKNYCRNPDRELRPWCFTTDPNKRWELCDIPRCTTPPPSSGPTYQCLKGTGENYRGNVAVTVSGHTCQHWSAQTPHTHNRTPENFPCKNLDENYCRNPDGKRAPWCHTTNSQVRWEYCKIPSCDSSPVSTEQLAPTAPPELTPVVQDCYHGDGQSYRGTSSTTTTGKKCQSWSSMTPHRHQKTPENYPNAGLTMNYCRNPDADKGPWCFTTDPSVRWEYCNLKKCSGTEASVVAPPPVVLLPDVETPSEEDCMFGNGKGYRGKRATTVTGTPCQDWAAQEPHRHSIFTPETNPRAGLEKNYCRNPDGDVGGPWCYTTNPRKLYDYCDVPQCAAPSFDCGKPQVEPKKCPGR

Work on `CC[C@H](C)[C@H](NC(=O)CCOCCOCCN(CCOCCOCCC(=O)N[C@H](C(=O)N[C@@H](CCC(=O)O)C(=O)N[C@H](C(=O)N[C@@H](CC(=O)O)C(=O)N[C@H](C(=O)O)C(C)C)[C@@H](C)O)[C@@H](C)CC)C(=O)[C@H](CCCNC(=N)N)NC(=O)[C@H](CCCNC(=N)N)NC(=O)[C@H](CCCNC(=N)N)NC(=O)[C@H](CCC(N)=O)NC(=O)[C@H](CCCNC(=N)N)NC(=O)[C@H](CCCNC(=N)N)NC(=O)[C@H](CCCCN)NC(=O)[C@H](CCCCN)NC(=O)[C@H](CCCNC(=N)N)NC(=O)CNC(=O)[C@@H](N)Cc1ccc(O)cc1)C(=O)N[C@@H](CCC(=O)O)C(=O)N[C@H](C(=O)N[C@@H](CC(=O)O)C(=O)N[C@H](C(=O)O)C(C)C)[C@@H](C)O` [Compound 8, L-TAT-NPEG4(IETDV)2, reference compound] yielded a T1/2 [1] of 24 ± 0 h and a half-life at 100 μM ([2]; plasmin (5 μg/mL) in PBS, read-out: T1/2) of 9.05 ± 1 h.
`CC(=O)N[C@@H](Cc1ccc(O)cc1)C(=O)NCC(=O)N[C@@H](CCCNC(=N)N)C(=O)N[C@@H](CCCCN)C(=O)N[C@@H](CCCCN)C(=O)N[C@@H](CCCNC(=N)N)C(=O)N[C@@H](CCCNC(=N)N)C(=O)N[C@@H](CCC(N)=O)C(=O)N[C@@H](CCCNC(=N)N)C(=O)N[C@@H](CCCNC(=N)N)C(=O)N[C@@H](CCCNC(=N)N)C(=O)N(CCOCCOCCC(=O)N[C@H](C(=O)N[C@@H](CCC(=O)O)C(=O)N[C@H](C(=O)N[C@H](C(=O)N[C@H](C(=O)O)C(C)C)C(C)C)[C@@H](C)O)C(C)C)CCOCCOCCC(=O)N[C@H](C(=O)N[C@@H](CCC(=O)O)C(=O)N[C@H](C(=O)N[C@H](C(=O)N[C@H](C(=O)O)C(C)C)C(C)C)[C@@H](C)O)C(C)C` [Compound 21] gave a Ki [3] of 15.8 ± 1.6 nM and a half-life [2, 4] of 8.87 ± 0.683 h.
Work on `CC(=O)N[C@@H](CCCNC(=N)N)C(=O)N[C@@H](CCCNC(=N)N)C(=O)N[C@@H](CCCNC(=N)N)C(=O)N[C@@H](CCCNC(=N)N)C(=O)N[C@@H](CCCNC(=N)N)C(=O)N[C@@H](CCCNC(=N)N)C(=O)N[C@@H](CCCNC(=N)N)C(=O)N(CCOCCOCCC(=O)N[C@@H](CCCCN)C(=O)N[C@@H](CCC(=O)O)C(=O)N[C@H](C(=O)N[C@@H](CC(C)C)C(=O)N[C@H](C(=O)O)C(C)C)[C@@H](C)O)CCOCCOCCC(=O)N[C@@H](CCCCN)C(=O)N[C@@H](CCC(=O)O)C(=O)N[C@H](C(=O)N[C@@H](CC(C)C)C(=O)N[C@H](C(=O)O)C(C)C)[C@@H](C)O` [Compound 67] yielded a T1/2 [1] of 24 ± 0 h.
`CC(=O)N[C@@H](Cc1ccc(O)cc1)C(=O)NCC(=O)N[C@@H](CCCNC(=N)N)C(=O)N[C@@H](CCCCN)C(=O)N[C@@H](CCCCN)C(=O)N[C@@H](CCCNC(=N)N)C(=O)N[C@@H](CCCNC(=N)N)C(=O)N[C@@H](CCC(N)=O)C(=O)N[C@@H](CCCNC(=N)N)C(=O)N[C@@H](CCCNC(=N)N)C(=O)N[C@@H](CCCNC(=N)N)C(=O)N(CCOCCOCCC(=O)N[C@@H](CCCCN)C(=O)N[C@@H](CCC(=O)O)C(=O)N[C@H](C(=O)N[C@@H](CC(C)C)C(=O)N[C@H](C(=O)O)C(C)C)[C@@H](C)O)CCOCCOCCC(=O)N[C@@H](CCCCN)C(=O)N[C@@H](CCC(=O)O)C(=O)N[C@H](C(=O)N[C@@H](CC(C)C)C(=O)N[C@H](C(=O)O)C(C)C)[C@@H](C)O` [Compound 11] gave a Ki [3] of 5.4 ± 0.9 nM and a half-life [2, 4] of 5.77 ± 1.75 h.
Molecule `CC(=O)N[C@@H](Cc1ccc(O)cc1)C(=O)NCC(=O)N[C@@H](CCCNC(=N)N)C(=O)N[C@@H](CCCCN)C(=O)N[C@@H](CCCCN)C(=O)N[C@@H](CCCNC(=N)N)C(=O)N[C@@H](CCCNC(=N)N)C(=O)N[C@@H](CCC(N)=O)C(=O)N[C@@H](CCCNC(=N)N)C(=O)N[C@@H](CCCNC(=N)N)C(=O)N[C@@H](CCCNC(=N)N)C(=O)N(CCOCCOCCC(=O)N[C@@H](CCCCN)C(=O)N[C@@H](CCC(=O)O)C(=O)N[C@H](C(=O)N[C@H](C(=O)N[C@H](C(=O)O)C(C)C)C(C)C)[C@@H](C)O)CCOCCOCCC(=O)N[C@@H](CCCCN)C(=O)N[C@@H](CCC(=O)O)C(=O)N[C@H](C(=O)N[C@H](C(=O)N[C@H](C(=O)O)C(C)C)C(C)C)[C@@H](C)O` [Compound 15] has a Ki [3] of 2.1 ± 0.2 nM and a half-life [2, 4] of 6.42 ± 2.17 h.
With `CC[C@H](C)[C@H](NC(=O)CCOCCOCCN(CCOCCOCCC(=O)N[C@H](C(=O)N[C@@H](CO)C(=O)N[C@H](C(=O)N[C@@H](CC(=O)O)C(=O)N[C@H](C(=O)O)C(C)C)[C@@H](C)O)[C@@H](C)CC)C(=O)[C@H](CCCNC(=N)N)NC(=O)[C@H](CCCNC(=N)N)NC(=O)[C@H](CCCNC(=N)N)NC(=O)[C@H](CCC(N)=O)NC(=O)[C@H](CCCNC(=N)N)NC(=O)[C@H](CCCNC(=N)N)NC(=O)[C@H](CCCCN)NC(=O)[C@H](CCCCN)NC(=O)[C@H](CCCNC(=N)N)NC(=O)CNC(=O)[C@H](Cc1ccc(O)cc1)NC(C)=O)C(=O)N[C@@H](CO)C(=O)N[C@H](C(=O)N[C@@H](CC(=O)O)C(=O)N[C@H](C(=O)O)C(C)C)[C@@H](C)O` [Compound 19] the Ki [3] was 36.1 ± 1.8 nM and the half-life [2, 4] was 8.9 ± 0.667 h.
Work on `CC[C@H](C)[C@H](NC(=O)CCOCCOCCN(CCOCCOCCC(=O)N[C@H](C(=O)N[C@@H](CCC(=O)O)C(=O)N[C@H](C(=O)N[C@@H](CC(=O)O)C(=O)N[C@H](C(=O)O)C(C)C)[C@@H](C)O)[C@@H](C)CC)C(=O)[C@H](CCCNC(=N)N)NC(=O)[C@H](CCCNC(=N)N)NC(=O)[C@H](CCCNC(=N)N)NC(=O)[C@H](CCCNC(=N)N)NC(=O)[C@H](CCCNC(=N)N)NC(=O)[C@H](CCCNC(=N)N)NC(=O)[C@H](CCCNC(=N)N)NC(=O)[C@H](CCCNC(=N)N)NC(=O)[C@H](CCCNC(=N)N)NC(C)=O)C(=O)N[C@@H](CCC(=O)O)C(=O)N[C@H](C(=O)N[C@@H](CC(=O)O)C(=O)N[C@H](C(=O)O)C(C)C)[C@@H](C)O` [Compound 35] yielded a T1/2 [1] of 24 ± 0 h, a half-life at 100 μM [2] of 24.9 ± 1.9 h and a half-life at 100 μM ([2]; isolated enzyme plasmin) of 24.9 ± 1.9 h.
`CC(=O)N[C@@H](Cc1ccc(O)cc1)C(=O)NCC(=O)N[C@@H](CCCNC(=N)N)C(=O)N[C@@H](CCCCN)C(=O)N[C@@H](CCCCN)C(=O)N[C@@H](CCCNC(=N)N)C(=O)N[C@@H](CCCNC(=N)N)C(=O)N[C@@H](CCC(N)=O)C(=O)N[C@@H](CCCNC(=N)N)C(=O)N[C@@H](CCCNC(=N)N)C(=O)N[C@@H](CCCNC(=N)N)C(=O)N(CCOCCOCCC(=O)N[C@@H](CCCCN)C(=O)N[C@@H](CCC(=O)O)C(=O)N[C@H](C(=O)N[C@H](C(=O)N[C@H](C(=O)O)C(C)C)[C@@H](C)O)[C@@H](C)O)CCOCCOCCC(=O)N[C@@H](CCCCN)C(=O)N[C@@H](CCC(=O)O)C(=O)N[C@H](C(=O)N[C@H](C(=O)N[C@H](C(=O)O)C(C)C)[C@@H](C)O)[C@@H](C)O` [Compound 13] showed a Ki [3] of 6.5 ± 0.7 nM and a half-life [2, 4] of 9.5 ± 3 h.
In the case of `CC(=O)N[C@@H](CCCNC(=N)N)C(=O)N[C@@H](CCCNC(=N)N)C(=O)N[C@@H](CCCNC(=N)N)C(=O)N[C@@H](CCCNC(=N)N)C(=O)N[C@@H](CCCNC(=N)N)C(=O)N(CCOCCOCCC(=O)N[C@@H](CCCCN)C(=O)N[C@@H](CCC(=O)O)C(=O)N[C@H](C(=O)N[C@@H](CC(C)C)C(=O)N[C@H](C(=O)O)C(C)C)[C@@H](C)O)CCOCCOCCC(=O)N[C@@H](CCCCN)C(=O)N[C@@H](CCC(=O)O)C(=O)N[C@H](C(=O)N[C@@H](CC(C)C)C(=O)N[C@H](C(=O)O)C(C)C)[C@@H](C)O` [Compound 71], the half-life at 100 μM ([1]; human) is reported as 21.1 ± 2.3 h.
With `CC(=O)N[C@@H](Cc1ccc(O)cc1)C(=O)NCC(=O)N[C@@H](CCCNC(=N)N)C(=O)N[C@@H](CCCCN)C(=O)N[C@@H](CCCCN)C(=O)N[C@@H](CCCNC(=N)N)C(=O)N[C@@H](CCCNC(=N)N)C(=O)N[C@@H](CCC(N)=O)C(=O)N[C@@H](CCCNC(=N)N)C(=O)N[C@@H](CCCNC(=N)N)C(=O)N[C@@H](CCCNC(=N)N)C(=O)N(CCOCCOCCC(=O)N[C@@H](CCCCN)C(=O)N[C@@H](CCC(=O)O)C(=O)N[C@H](C(=O)N[C@@H](CCCNC(=N)N)C(=O)N[C@H](C(=O)O)C(C)C)[C@@H](C)O)CCOCCOCCC(=O)N[C@@H](CCCCN)C(=O)N[C@@H](CCC(=O)O)C(=O)N[C@H](C(=O)N[C@@H](CCCNC(=N)N)C(=O)N[C@H](C(=O)O)C(C)C)[C@@H](C)O` [Compound 17] the Ki [3] was 6.6 ± 0.6 nM and the half-life [2, 4] was 6.42 ± 2.17 h.
In the case of `CC(=O)N[C@@H](CCCNC(=N)N)C(=O)N[C@@H](CCCNC(=N)N)C(=O)N[C@@H](CCCNC(=N)N)C(=O)N[C@@H](CCCNC(=N)N)C(=O)N[C@@H](CCCNC(=N)N)C(=O)N[C@@H](CCCNC(=N)N)C(=O)N[C@@H](CCCNC(=N)N)C(=O)N[C@@H](CCCNC(=N)N)C(=O)N[C@@H](CCCNC(=N)N)C(=O)N(CCOCCOCCC(=O)N[C@@H](CCCCN)C(=O)N[C@@H](CCC(=O)O)C(=O)N[C@H](C(=O)N[C@@H](CC(C)C)C(=O)N[C@H](C(=O)O)C(C)C)[C@@H](C)O)CCOCCOCCC(=O)N[C@@H](CCCCN)C(=O)N[C@@H](CCC(=O)O)C(=O)N[C@H](C(=O)N[C@@H](CC(C)C)C(=O)N[C@H](C(=O)O)C(C)C)[C@@H](C)O` [Compound 23], the T1/2 [1] is reported as 24 ± 0 h and the half-life at 100 μM ([2]; isolated enzyme plasmin) is reported as 43.6 ± 4.6 h.
